Patent publication US5670538A, “Use of prodelphinidins for obtaining medicaments intended for the treatment of arthrosis” (Laboratoires Dolisos, priority 1992, dated 1997)

Legend:
[1] = Antilipoperoxidizing activity (gamma irradiation, linoleic acid substrate, pentane); format: biochemical; settings: for % inhibition of pentane release from linoleic acid (lipid peroxidation): Substrate: Linoleic acid, relative to the controls
Procedure: 9. Antilipoperoxidizing activity
Similar to the preceding anti-radical method but where the KMB is replaced by linoleic acid (C18: 2), the gamma radiation releases pentane which is analyzed. The height of the pentane peak is proportional to the quantity free of radicals formed in the medium.

[2] = Production of OH° hydroxyl radicals (gamma irradiation, KMB substrate, ethylene by gas chromatography); format: biochemical; settings: for % inhibition of the production of hydroxyl radicals: Substrate: KMB, relative to the controls
Procedure: 8. Production of OH° hydroxyl radicals
The products are dissolved in 10 ml flasks at the required concentration in phosphate buffer: 6.6.10^-2 M, pH 7.4 in the presence of alpha keto methiolbutyric acid (10^-3 M: KMB). After the flasks have been hermetically sealed, the samples are irradiated with gamma rays provided by a ^137 Cs source.
The OH° radicals produced by the gamma radiation react with the KMB to produce the ethylene detected by a gas chromatograph. The height of the ethylene peak is proportional to the quantity of free radicals formed in the medium (Weis et al., 1978).

[3] = system: human articular chondrocytes; experiment: Radioimmunoassay of type II collagen (coll. II) produced in tridimensional culture of human chondrocytes; format: cell-based
Source text: The model used for testing the proanthocyanidols, namely the tridimensional culture of human chondrocytes allows chondrorepair to be quantified by the production of matrix substances: type II collagen, proteoglycans, and chondroresorption by the reduction in the levels of prostaglandin E2 and of OH° and O°2 type free radicals produced.
1. Tridimensional culture of human chondrocytes
The technique used has been described in detail (Bassleer et al., 1986).
Briefly, human articular chondrocytes are cultivated in DMEM (Dulbecco's Modification of Eagle's Medium--ICN--Gand, Belgium) with either Ultroser G 1% (GIBCO, Gand, Belgium) or 10% of foetal calf serum (ICN--Gand--Belgium), and 50 μg of ascorbic acid/ml added to it. The cartilage originates from the apparently normal zone of heads of human femur suffering from arthrosis, immediately after an operation carried out to insert a total hip prosthesis; it can also originate from the head of a healthy femur, but which has undergone a traumatism and has had to be replaced. This cartilage is then digested by clostridial collagenase 1 mg/ml (Boehringer-Mannheim, Germany) in a buffer (NaCl 120 mM, CaCl2 1 mM, KCl 5 mM, KH2 PO4 1 mM, NaHCO3 25 mM, glucose 2 mM and Hepes 30 mM, pH 7.4) for 24 hours. After 6 successive washings and centrifugations, the chondrocytes, isolated from their matrix, are cultured in flasks (10^6 cells/2 ml of culture medium) placed on a gyrator (10 rpm). The cultures are kept at 37° C. in an atmosphere of air 95%-CO2 5% (Bassleer et al., 1986). Cultivated under these conditions, after 4 to 5 days the chondrocytes form a tridimensional cluster in each flask. These clusters, which at first have a flocculent appearance, then tend to condense during the culture. After two weeks, their diameter is, in general, from 1 to 2 mm.
The fresh weight of the clusters increases with the duration of the culture, above all during the few first days.
3. Radioimmunoassay of type II collagen (coll. II)
The method for the radioimmunoassay of coll. II has been described in detail (Henrotin et al., 1990). The coll. II is extracted from human articular cartilage according to the technique described by Herbage et al. (1977). The antiserum against coll. II was obtained from rabbits according to the technique of Vaitukaitis et al. (1971).
The assay is carried out by sequential saturation. In the first instance, the radioimmunoassay is carried out in a 0.3 ml volume consisting of 0.2 ml of incubation buffer (PBS-50 mM PO4, 300 mM NaCl, 5 g/l BSA (W/V), 6.7 mM sodium azide, pH 7.4) containing the reference coll. II (0.5 to 500 ng) or the sample to be assayed and 0.1 ml of anti-coll. II antiserum from guinea pigs diluted to 1/5000 (24 hours at 4° C.). In the second instance, 0.1 ml of ^125 I-coll. II tracer labelled according to the iodogenic technique (Salacynski et al., 1979 and diluted so as to obtain 20,000 cpm/0.1 ml) is added. After 24 hours at 4° C., the collagen-antibody complexes are separated from the free radioactive coll. II by the double antibody system (Franchimont et al. 1983). Sequential saturation gives a sensitivity of 3 ng/tube. The accuracy of the method is 10%. The coefficients of the intra- and inter assay variation are 10% and 20% respectively.
The assay is specific to human articular type II collagen.
No cross reaction is obtained with bovine collagen of type I, III or IV.
The culture media are stored at -20° C. in the presence of enzymatic inhibitors (Oegema et al., 1975). These media are assayed by the radio immunological method without any treatment beforehand. The chondrocyte clusters are washed and dissociated with ultrasonics according to the method described for the assay of the PGs. After centrifugation (1500 rpm, 10 minutes), the residue is extracted using 500 mM acetic acid under agitation for 24 hours at 4° C. The supernatant of the homogenate and the extract of the residue are mixed together and assayed after equilibration at pH 7.4 using 4M NaOH.
The recovery of coll. […]

Oc1cc(O)c2c(c1)O[C@H](c1cc(O)c(O)c(O)c1)[C@@H](O)[C@@H]2c1c(O)cc(O)c2c1O[C@H](c1cc(O)c(O)c(O)c1)[C@H](O)C2 [Substance Ia, GC-(4 alpha→8) EGC]
% inhibition of pentane release from linoleic acid (lipid peroxidation) ([1]; 10^-3 M): 94% | % inhibition of pentane release from linoleic acid (lipid peroxidation) ([1]; 10^-4 M): 42% | % inhibition of pentane release from linoleic acid (lipid peroxidation) ([1]; 10^-5 M): 0% | Production of free radicals from linoleic acid, effect in words ([1]; Table 23): significantly inhibits | % inhibition of the production of hydroxyl radicals ([2]; 10^-3 M): 78% | % inhibition of the production of hydroxyl radicals ([2]; 10^-4 M): 41% | % inhibition of the production of hydroxyl radicals ([2]; 10^-5 M): 22% | Production of free radicals from KMB, effect in words ([2]; Table 22): significantly inhibits | Average concentrations (m ± SD) of type II collagen in the clusters of chondrocytes at the end of 12 days of culture ([3]; 1% Ultroser G, 1 μg/ml): 105 ± 13 ng per μg of DNA | Cumulative release of coll.II over 12 days, Abs ([3]; 1% Ultroser G, 1 μg/ml): 482 ng/μg DNA/12 days | Average concentrations (m ± SD) of type II collagen in the clusters of chondrocytes at the end of 12 days of culture ([3]; 1% Ultroser G, 10 μg/ml): 165 ± 21 ng per μg of DNA | Cumulative release of coll.II over 12 days, Abs ([3]; 1% Ultroser G, 10 μg/ml): 787 ng/μg DNA/12 days | Average concentrations (m ± SD) of type II collagen in the clusters of chondrocytes at the end of 12 days of culture ([3]; 1% Ultroser G, 100 μg/ml): 175 ± 19 ng per μg of DNA | Cumulative release of coll.II over 12 days, Abs ([3]; 1% Ultroser G, 100 μg/ml): 962 ng/μg DNA/12 days | Coll. II released in the culture medium ([3]; 1% Ultroser G, culture time 0-4 days, 1 μg/ml): 233 ± 25 ng/μg DNA/96 h | Coll. II released in the culture medium ([3]; 1% Ultroser G, culture time 0-4 days, 10 μg/ml): 301 ± 52 ng/μg DNA/96 h | Coll. II released in the culture medium ([3]; 1% Ultroser G, culture time 0-4 days, 100 μg/ml): 462 ± 51 ng/μg DNA/96 h | Coll. II released in the culture medium ([3]; 1% Ultroser G, culture time 4-8 days, 1 μg/ml): 147 ± 19 ng/μg DNA/96 h | Coll. II released in the culture medium ([3]; 1% Ultroser G, culture time 4-8 days, 10 μg/ml): 259 ± 22 ng/μg DNA/96 h | Coll. II released in the culture medium ([3]; 1% Ultroser G, culture time 4-8 days, 100 μg/ml): 311 ± 41 ng/μg DNA/96 h | Coll. II released in the culture medium ([3]; 1% Ultroser G, culture time 8-12 days, 1 μg/ml): 102.2 ± 10.96 ng/μg DNA/96 h | Coll. II released in the culture medium ([3]; 1% Ultroser G, culture time 8-12 days, 10 μg/ml): 147 ± 21 ng/μg DNA/96 h | Coll. II released in the culture medium ([3]; 1% Ultroser G, culture time 8-12 days, 100 μg/ml): 109 ± 23 ng/μg DNA/96 h | activity at 1 µg/mL ([3]; Homo sapiens, Chondrocyte, 288 h, 1% Ultroser G, 1 μg/ml, control = 100, read-out: Cumulative release of coll.II over 12 days, %): 102% | activity at 10 µg/mL ([3]; Homo sapiens, Chondrocyte, 288 h, 1% Ultroser G, 10 μg/ml, control = 100, read-out: Cumulative release of coll.II over 12 days, %): 166% | activity at 100 µg/mL ([3]; Homo sapiens, Chondrocyte, 288 h, 1% Ultroser G, 100 μg/ml, control = 100, read-out: Cumulative release of coll.II over 12 days, %): 202% | Type II collagen in the culture media, effect in words ([3]; foetal calf serum, 10 and 100 μg/ml): increases | Coll. II released in the culture medium ([3]; foetal calf serum, Table 18, 0-4 days, 10 μg/ml): 44.3 ± 2.30 ng/μg DNA/96 H | Coll. II released in the culture medium ([3]; foetal calf serum, Table 18, 0-4 days, 100 μg/ml): 77.0 ± 15.58 ng/μg DNA/96 H | Coll. II released in the culture medium ([3]; foetal calf serum, Table 18, 4-8 days, 10 μg/ml): 34.0 ± 3.11 ng/μg DNA/96 H | Coll. II released in the culture medium ([3]; foetal calf serum, Table 18, 4-8 days, 100 μg/ml): 47.2 ± 5.19 ng/μg DNA/96 H | Coll. II released in the culture medium ([3]; foetal calf serum, Table 19, 0-4 days, 10 μg/ml): 37.4 ± 1.98 ng/μg DNA/96 H | Coll. II released in the culture medium ([3]; foetal calf serum, Table 19, 0-4 days, 100 μg/ml): 44.2 ± 11.6 ng/μg DNA/96 H | Coll. II released in the culture medium ([3]; foetal calf serum, Table 19, 4-8 days, 10 μg/ml): 25.3 ± 2.20 ng/μg DNA/96 H | Coll. II released in the culture medium ([3]; foetal calf serum, Table 19, 4-8 days, 100 μg/ml): 38.2 ± 5.71 ng/μg DNA/96 H | Coll. II in the clusters ([3]; foetal calf serum, experiment 397, 4-8 days, 10 μg/ml): 78.8 ± 10.5 ng/μg DNA | Coll. II in the clusters ([3]; foetal calf serum, experiment 397, 4-8 days, 100 μg/ml): 114.7 ± 10.55 ng/μg DNA | Collagen II in the clusters, effect in words ([3]; foetal calf serum, experiment 397, 10 and 100 μg/ml): An increase in collagen II is observed
